Assay results taken from the METLIN SMRT retention time set (Domingo-Almenara et al. 2019).

Test: gradient 5% acetonitrile 3 min, to 50% in 2 min, to 85% in 15 min, held 3 min, 100 µL/min
Conditions: column: Zorbax Extend-C18 2.1 x 50 mm; eluents: water / acetonitrile, 0.1% formic acid
Outline: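 Retention time was recorded from adduct peaks, which were picked computationally and each inspected manually. Pure standards ran in mixtures of ~100 molecules on HPLC coupled to a quadrupole time-of-flight mass spectrometer, in positive and negative ionization mode, through a Zorbax Extend-C18 column (2.1 × 50 mm, 1.8 μm) at 100 μL/min. Eluents were water and acetonitrile, each with 0.1% formic acid.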

RP-LC retention time [s]	Structure (SMILES)
869	CCS(=O)(=O)Nc1ccc(C2(C(=O)NCc3cccc(C)c3)CCC2)cc1
551	OC[C@H]1OC(n2cnc3c(N[C@H]4CCC[C@@H]4O)ncnc32)[C@H](O)[C@@H]1O (some centres not stated)
955	CCC(C)N(CC(=O)N1CCc2sccc2C1COc1ccc(Cl)cc1)C(=O)COC (configuration not stated)
631	Cc1nn(CC(=O)NCCN2CCCC2)c(=O)c2cc(-c3ccccc3)nn12
826	Cc1ccc(C2Cn3cnc(C(=O)N4CCC(C(=O)NCCc5ccccc5)CC4)c3CO2)cc1 (configuration not stated)
613	Cc1cc(Cl)ccc1-n1ncc2c(N3CCN(CCO)CC3)ncnc21
601	O=C(NCc1cc(F)ccc1F)c1cn2c(n1)CCCC2
860	COc1ccc(Cc2nc3nccc(-c4cc(OC)c(OC)c(OC)c4)n3n2)cc1
675	CN1CCC2(CC1)N=C(c1ccc(Br)cc1)CC(c1cc(Cl)ccc1O)N2 (configuration not stated)
1240	Cc1ccc(-c2csc(NC(=O)c3ccc(C)c(C)c3)n2)cc1
547	Cc1ccc(-c2nnc(C)c(NCCN3CCOCC3)n2)cc1
713	CCC(C)NC(=O)Cn1ccc2ccc(-c3nnc(C)o3)cc21 (configuration not stated)
680	Cc1ccc2nc(-c3ccc(C)c(NC(=O)C(C)(C)C)c3)[nH]c2c1
709	COc1ccc2nc(NC3=NCN(CCc4ccc(OC)c(OC)c4)CN3)nc(C)c2c1
1090	Cc1ccc(-c2noc(Cn3c(=O)n(-c4ccccc4F)c(=O)c4sccc43)n2)cc1C
815	CCNC(=O)C1CCN(c2nc3ccc(-c4cccs4)nc3s2)CC1
706	COCCN1C(=O)[C@H]2CN(Cc3cccc(OC(F)(F)F)c3)C[C@H]2C1=O
906	Cn1nc(-c2nc(C3CC3)no2)c2c1CCN(C(=O)c1cccc(C(F)(F)F)c1)C2
703	O=C(Cn1cnc(-c2ccc(F)cc2)cc1=O)NCc1cccs1
756	Cc1nc(OCC(=O)Nc2c(C)cccc2C)c2ccccc2n1
1040	Cc1ccc(Nc2c(-c3ccccc3)nc3cnccn23)c(Br)c1
1010	Cc1cc2ccccc2n1CCNC(=O)C(=O)c1c[nH]c2ccccc12

RP-LC retention time [s]	Structure (SMILES)
751	COCCN1CCC2(CC1)CN(Cc1ccc(Cl)c(F)c1)Cc1ccccc1O2
1020	COc1ccccc1-c1nc(C2CC(=O)N(c3ccc(Cl)cc3)C2)no1 (configuration not stated)
676	O=S(=O)(c1cccc(F)c1)N1CC(c2noc(C3CCCN3CC3CC3)n2)C1 (configuration not stated)
911	CCc1nc2c(=O)n(CC(=O)N3CCN(c4cc(C)ccc4C)CC3)nc(C)c2s1
1020	CCN(CC)c1nc2cc(C(=O)NCc3ccc(C)o3)ccc2c(=O)n1-c1ccccc1
893	COc1ccc(N2C=C(C#N)S(=O)(=O)c3ccc(F)cc32)cc1OC
1130	CCOC(=O)c1noc2nc(C)nc(NCCc3ccc(C)cc3)c12
725	COc1cccc(CNC(=O)C2CCN(C(=O)C3Sc4ccccc4NC3=O)CC2)c1 (configuration not stated)
818	Cc1ccc(N2CCN(S(=O)(=O)c3cc(-c4nnc(C5CC5)o4)co3)CC2)cc1
576	CC(C)NC(=O)c1ccc2c(c1)nc(CN1CCN(C(=O)NC(C)C)CC1)n2C
782	O=C(NCCNC(=O)Nc1cccc(Cl)c1)Nc1cccc(Cl)c1
704	CSc1ccc(-c2nc3cnccn3c2Nc2cccc(C(=O)N3CCOCC3)c2)cc1
971	CCOC(=O)c1noc2ncnc(NCc3cccc(OC)c3)c12
626	COCc1c(C(=O)O)nnn1-c1ccc(OC)c(OC)c1
690	Cc1noc(C)c1CC(=O)N1CC(c2nc(-c3cccs3)no2)C1
822	CC(C)NC(=O)c1ccc(OCC2CCN(C(=O)c3ccccc3F)CC2)cc1
1160	CCCN1C(=O)COc2ccc(-c3noc(-c4cccc(OC)c4OC)n3)cc21
720	CCCn1ccc2sc(C)c(C(=O)NC(C)C)c2c1=O
884	CCn1ncc(NC(=O)c2ccc(Br)cc2)c(N2CCOCC2)c1=O
1130	Cc1nn(-c2ccc(-c3ccccc3)nn2)c(C)c1S(=O)(=O)NCCC(C)C
1070	CCc1ccccc1S(=O)(=O)N1C[C@@H]2C(=O)N(C(CC)c3cccs3)C(=O)[C@@H]2C1 (some centres not stated)
603	CCC(=O)NCc1nc2c(n1CC)CN(C(=O)c1cccc(C(F)(F)F)c1)CC2

RP-LC retention time [s]	Structure (SMILES)
603	COc1cccc(N2C(=O)Nc3ccccc3C2(O)C(=O)N2CCN(c3ccccn3)CC2)c1 (configuration not stated)
657	CCN1C(=O)c2cccc3c(NC(=O)Cc4ccc(S(C)(=O)=O)cc4)ccc1c23
878	COc1ccc(N2CC(c3nc(-c4ccccc4Cl)no3)CC2=O)cc1OC (configuration not stated)
976	COc1cc(-c2noc(-c3ncn4c3COC(c3ccc(F)cc3)C4)n2)cc(OC)c1OC (configuration not stated)
843	N#Cc1ccc(Cl)cc1NC(=O)c1ccc(N2CCOCC2)nn1
768	COc1ccc(-c2n[nH]c3c2C(c2cccnc2)N(c2ccc(Br)cc2)C3=O)cc1 (configuration not stated)
687	COc1cc(CCc2cc(NC(=O)c3ccc(N4C[C@@H](C)N[C@@H](C)C4)cc3)n[nH]2)cc(OC)c1
792	O=C(CC1(O)C(=O)Nc2c(Cl)cc(Cl)cc21)c1cccc([N+](=O)[O-])c1 (configuration not stated)
688	CCOc1cc(=O)n2c(c1C(=O)NCc1ccc(C)o1)CCCCC2
667	O=C(NCc1cc(F)ccc1F)C1CCN(c2cnc(N3CCCC3)nc2)CC1
725	COCCNC(=O)N1c2ccccc2NC2=C(C(=O)CC(C)(C)C2)C1c1ccccc1OC (configuration not stated)
1030	COc1ccc(N2CC(c3noc(-c4ccc(C)c(C)c4)n3)CC2=O)cc1 (configuration not stated)
554	CCc1cc(=O)n(Cc2ncc(C)c(OC)c2C)c(N2CCCC2)n1
833	COc1ccc(CCNc2nc(N3CCc4cc(OC)c(OC)cc4C3)c3cc(OC)c(OC)cc3n2)cc1OC
1080	COc1ccc(-c2csc(NC(=O)CCCc3nc(-c4ccccc4Cl)no3)n2)cc1
588	O=C(c1cc(-c2ccncc2)n[nH]1)N1CCN(C(=O)C2CCCC2)CC1
1060	O=C(C1CCC1)N1CCc2sc(S(=O)(=O)N3CCN(c4ccccc4)CC3)cc2C1
610	O=C(c1cccc(F)c1)N1CCC(C(=O)N2CCN(Cc3ccc4c(c3)OCO4)CC2)CC1
632	O=C(NCc1ccccn1)C(=O)Nc1ccc(F)c(Cl)c1
716	COc1ccc(C(=O)N2C[C@@H]3C[C@H](NC(=O)c4ccccc4)[C@H]2C3)c(OC)c1
704	COc1cc(NC(=O)N2CCC(OC3CCN(S(C)(=O)=O)CC3)CC2)cc(OC)c1
732	Nc1cc(C2CCN(S(=O)(=O)Cc3ccccc3)CC2)no1

RP-LC retention time [s]	Structure (SMILES)
998	CCc1nc2ccccc2c(=O)n1Cc1noc(-c2ccc(F)cc2)n1
1070	Cc1ccc(-c2ccc(S(=O)(=O)N3CCCC3)cc2)cc1
1230	CCN(C(=O)c1ccccc1)c1nc(-c2ccccc2)cs1
1040	Cc1ccc(S(=O)(=O)N2CCc3c(c(-c4nnc(-c5ccc(F)cc5)o4)nn3C)C2)cc1Cl
718	CCC(=O)N1CCc2c(C(=O)NCc3ccc4c(c3)OCO4)cccc21
781	O=C(Nc1cccn2c(C3CCC3)nnc12)c1ccccn1
726	Cc1noc(C)c1Cc1c(C(=O)NCC23CCCC=C2NC(=O)CC3)noc1C (configuration not stated)
729	Cc1cccc2c1NC(=O)C2(O)CC(=O)c1ccccc1Cl (configuration not stated)
714	CN(C)S(=O)(=O)c1ccc(C(=O)N2CCCC(c3nnc(-c4cccs4)o3)C2)cc1 (configuration not stated)
756	Cc1ccc(-n2nc(C)c3c(C)c(CCC(=O)N4CCN(c5ccccn5)CC4)c(C)nc32)cc1
894	CCOC(=O)C1CCN(C(=O)C2(c3ccc(NS(C)(=O)=O)cc3)CCCCC2)CC1
758	CCn1cc(C)c(C(=O)O)c1CC(=O)NCc1ccc(SC)cc1
1040	Fc1ccc(-n2cc(-c3noc(-c4ccccc4F)n3)nn2)cc1
986	CCC1=NS(=O)(=O)c2cccnc2N1c1ccc(Br)c(C)c1
622	Cn1cc(C(=O)N2CCCCCCNC(=O)[C@@H]3CCC[C@@H]32)cn1
620	O=C(Nc1cccc2ccc(-n3ccnc3)nc12)c1ccc2c(c1)OCO2
928	Cc1ccc(C)c(N2CCN(C(=O)c3[nH]c(C)c(S(=O)(=O)N4CCOCC4)c3C)CC2)c1
669	O=C(NCc1cccnc1)c1nnc(-c2ccc(S(=O)(=O)N3CCCCC3)cc2)o1
619	CC1CCN(C(=O)c2ccc3ncnc(N4CCCC4)c3c2)CC1
759	CCCCN(C)c1ccc(NC(=O)Cc2cccs2)c(C(=O)O)c1

Structure (SMILES)	RP-LC retention time [s]
O=C1CC[C@@]2(O)C3Cc4ccc(O)c5c4C2(CCN3CC2CC2)[C@H]1O5 (some centres not stated)	599
